Data on 54 compounds can be found in ChEMBL document CHEMBL4419121, “Tetrahydropyridopyrazines modulators of gpr6” (2018).

One may read the IC50 as the point on the concentration scale where inhibition reaches its midpoint.

The first assay deals with T1, G-protein coupled receptor 6 (Homo sapiens, UniProt P46095). The experiment in a line: Modulation activity at GPR6 receptor (unknown origin) expressed in CHO-K1 cells assessed as inhibition of constitutive cAMP activity incubated for 45 mins in presence of 300 uM IBMX by Perkin Elmer Lance HTRF Ultrac-AMP assay. In kind it is functional, cell-based. As to conditions: cho-k1. On the technique in general: Time-resolved FRET reads energy transfer from a long-lived donor to a nearby acceptor.
T1 sequence (P46095 whole entry): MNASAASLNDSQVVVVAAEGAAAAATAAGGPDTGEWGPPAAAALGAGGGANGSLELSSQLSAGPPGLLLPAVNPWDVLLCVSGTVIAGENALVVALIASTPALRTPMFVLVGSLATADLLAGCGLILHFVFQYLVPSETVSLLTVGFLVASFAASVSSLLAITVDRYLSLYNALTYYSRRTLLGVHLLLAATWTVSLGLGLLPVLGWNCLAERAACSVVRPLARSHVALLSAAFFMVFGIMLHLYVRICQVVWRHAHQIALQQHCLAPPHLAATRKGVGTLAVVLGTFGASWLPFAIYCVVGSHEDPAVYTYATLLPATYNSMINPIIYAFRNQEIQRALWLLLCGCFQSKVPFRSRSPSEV
As to `CC(=O)N1CCc2nc(NC(C)C)c(N3CCC(Oc4ccc(F)cc4F)CC3)nc2C1`, the IC50 stood at 73.7 nM. For the compound `CC(=O)N1CCc2nc(N3CCC(Oc4ccc(F)cc4F)CC3)c(NC(C)C)nc2C1`, the IC50 was determined as 24.6 nM.

Another assay concerns the target T1, G-protein coupled receptor 6. The experiment in a line: Modulation activity at GPR6 receptor (unknown origin) expressed in CHO-K1 cells assessed as inhibition of constitutive cAMP activity incubated for 45 mins by Perkin Elmer Lance HTRF Ultrac-AMP assay. In kind it is functional, cell-based.
Settings: not given
Take `CC(C)Nc1nc2c(nc1N1CCC(Oc3ccc(F)cc3F)CC1)CCN(C(=O)N1CCCC1)C2`: the IC50 turned out to be 391 nM.

Turning to `CC1Cc2nc(NCC(F)F)c(N3CCC(Oc4ccc(F)cc4F)CC3)nc2CN1S(C)(=O)=O` (stereo unspecified), the IC50 came to 10.4 nM. For `CC(C)Nc1nc2c(nc1N1CCC(Oc3ccc(F)cc3F)CC1)CCN(C(=O)c1ccno1)C2`, the IC50 is 38.7 nM. On the same count and under the same terms, for `CC1Cc2nc(NCC(F)F)c(N3CCC(Oc4ccc(F)cc4F)CC3)nc2CN1C(=O)C(F)F` (stereo unspecified) the value was 22.1 nM; for `CC(C)Nc1nc2c(nc1N1CCC(Oc3ccc(F)cc3F)CC1)CCN(C(=O)C1CCCO1)C2` (stereo unspecified), 17.9 nM. Take `CC1c2nc(N3CCC(Oc4ccc(F)cc4F)CC3)c(NCC(F)F)nc2CCN1S(C)(=O)=O` (stereo unspecified): the IC50 turned out to be 52 nM. Take `CC1c2nc(N3CCC(Oc4ccc(F)cc4F)CC3)c(NCC(F)F)nc2CCN1C(=O)C1CC1` (stereo unspecified): the IC50 worked out at 126 nM. The same measure, in the same setting: for `COc1ccc(OC2CCN(c3nc4c(nc3NC(C)C)CCN(C)C4)CC2)c(F)c1` the value was 26.6 nM; for `CO[C@@H](C)C(=O)N1CCc2nc(NCC(F)F)c(N3CCC(Oc4ccc(F)cc4F)CC3)nc2C1`, 8.3 nM; for `COc1ccc(OC2CCN(c3nc4c(nc3NC3CCC3)CCN(C(=O)N(C)C)C4)CC2)c(F)c1`, 13.8 nM.

As to `COCC(=O)N1Cc2nc(N3CCC(Oc4ccc(F)cc4F)CC3)c(NCC(F)F)nc2CC1C` (stereo unspecified), the IC50 was determined as 23 nM. As to `O=C(C(F)F)N1CCc2nc(N3CCC(Oc4ccc(F)cc4F)CC3)c(NCC(F)F)nc2C1`, the IC50 is 78.8 nM. `CN(C)C(=O)N1CCc2nc(N3CCC(Oc4ccc(F)cc4F)CC3)c(NCC(F)F)nc2C1`: the IC50 came out at 26.9 nM.

`COCC(=O)N1CCc2nc(NC(C)C)c(N3CCC(Oc4ccc(F)cc4F)CC3)nc2C1C` (stereo unspecified): the IC50 turned out to be 91 nM. For `CO[C@@H](C)C(=O)N1CCc2nc(N3CCC(Oc4ccc(F)cc4F)CC3)c(NCC(F)F)nc2C1`, the IC50 was 111 nM.

As to `COc1ccc(OC2CCN(c3nc4c(nc3NC(C)C)CN(C(=O)N(C)C)CC4)CC2)c(F)c1`, the IC50 amounted to 35 nM. On to `CN1CCc2nc(NC3CC3)c(N3CCC([C@H](F)c4ccc(F)cc4F)CC3)nc2C1`, for which the IC50 was determined as 15.2 nM.

On to `CC(=O)N1CCc2nc(NC(C)C)c(N3CCC(Oc4ccc(F)cc4F)CC3)nc2C1`, for which the IC50 is 9.5 nM. For `CC(=O)N1CCc2nc(N3CCC(Oc4ccc(F)cc4F)CC3)c(NCC(F)F)nc2C1C` (stereo unspecified), the IC50 worked out at 178 nM.

Take `CC(=O)N1CCc2nc(NC(C)C)c(N3CCC(Oc4ccc(F)cc4F)CC3)nc2C1C` (stereo unspecified): the IC50 was found to be 88 nM.

With `CC(C)Nc1nc2c(nc1N1CCC(Oc3ccc(F)cc3F)CC1)C(C)N(C(=O)C1CC1)CC2` (stereo unspecified), the IC50 stood at 259 nM. With `COC(C)C(=O)N1CCc2nc(N3CCC(Oc4ccc(F)cc4F)CC3)c(NC(C)C)nc2C1` (stereo unspecified), the IC50 came out at 16.8 nM. `COc1ccc(OC2CCN(c3nc4c(nc3NC3CCC3)CN(C(C)=O)CC4)CC2)c(F)c1`: the IC50 was found to be 19.9 nM.

For the compound `COc1ccc(OC2CCN(c3nc4c(nc3NC3CC3)CCN(C)C4)CC2)c(F)c1`, the IC50 came out at 145 nM. `CN(C)C(=O)N1CCc2nc(NCC(F)F)c(N3CCC(Oc4ccc(F)cc4F)CC3)nc2C1`: the IC50 is 9.1 nM. Turning to `CC(=O)N1Cc2nc(N3CCC(Oc4ccc(F)cc4F)CC3)c(NCC(F)F)nc2CC1C` (stereo unspecified), the IC50 worked out at 24.9 nM. In the case of `COCCNC(=O)N1CCc2nc(N3CCC(Oc4ccc(F)cc4F)CC3)c(NC(C)C)nc2C1`, the IC50 came to 29.8 nM.

On to `CC(=O)N1CCc2nc(NC(C)C)c(N3CCC(C(F)c4ccc(F)cc4F)CC3)nc2C1` (stereo unspecified), for which the IC50 was determined as 8.5 nM.

Turning to `CC(C)Nc1nc2c(nc1N1CCC(Oc3ccc(F)cc3F)CC1)CCN(S(=O)(=O)C(C)C)C2`, the IC50 turned out to be 149 nM. Turning to `COCC(=O)N1CCc2nc(N3CCC(Oc4ccc(F)cc4F)CC3)c(NCC(F)F)nc2C1C` (stereo unspecified), the IC50 came to 208 nM.

Consider `CO[C@@H](C)C(=O)N1Cc2nc(N3CCC(Oc4ccc(F)cc4F)CC3)c(NCC(F)F)nc2CC1C` (stereo partly specified), for which the IC50 was 20.9 nM. For the compound `CC(C)Nc1nc2c(nc1N1CCC(Oc3ccc(C#N)cc3F)CC1)CN(C(=O)C1CC1)CC2`, the IC50 amounted to 122 nM. On to `CC(C)Nc1nc2c(nc1N1CCC(Oc3ccc(F)cc3F)CC1)C(C)N(S(C)(=O)=O)CC2` (stereo unspecified), for which the IC50 came out at 98 nM. Same read-out and setting: for `COc1ccc(OC2CCN(c3nc4c(nc3NC3CCC3)CN(C(=O)N(C)C)CC4)CC2)c(F)c1` the value was 32.5 nM; for `COCCNC(=O)N1CCc2nc(NC(C)C)c(N3CCC(Oc4ccc(F)cc4F)CC3)nc2C1`, 14.9 nM. Consider `CC(=O)N1CCc2nc(NCC(F)F)c(N3CCC(Oc4ccc(F)cc4F)CC3)nc2C1C` (stereo unspecified), for which the IC50 is 76 nM. In the case of `CC(C)Nc1nc2c(nc1N1CCC(Oc3ccc(F)cc3F)CC1)CN(C(=O)CC#N)CC2`, the IC50 stood at 18 nM.

For `CC1c2nc(NCC(F)F)c(N3CCC(Oc4ccc(F)cc4F)CC3)nc2CCN1C(=O)C1CC1` (stereo unspecified), the IC50 came to 85 nM. For the compound `CC1Cc2nc(NCC(F)F)c(N3CCC(Oc4ccc(F)cc4F)CC3)nc2CN1C(=O)C1CC1` (stereo unspecified), the IC50 turned out to be 23.9 nM. For `COCC(=O)N1CCc2nc(NC(C)C)c(N3CCC(Oc4ccc(F)cc4F)CC3)nc2C1`, the IC50 was found to be 17.3 nM. For the compound `CN1CCc2nc(NC3CC3)c(N3CCC(C(F)c4ccc(F)cc4F)CC3)nc2C1` (stereo unspecified), the IC50 is 9.4 nM.

As for `CC1Cc2nc(NCC(F)F)c(N3CCC(Oc4ccc(F)cc4F)CC3)nc2CN1C(=O)N(C)C` (stereo unspecified), the IC50 amounted to 31.4 nM.

As for `COCC(=O)N1CCc2nc(NCC(F)F)c(N3CCC(Oc4ccc(F)cc4F)CC3)nc2C1C` (stereo unspecified), the IC50 is 68 nM. On to `CC1c2nc(NCC(F)F)c(N3CCC(Oc4ccc(F)cc4F)CC3)nc2CCN1S(C)(=O)=O` (stereo unspecified), for which the IC50 stood at 87 nM. For the compound `CC1Cc2nc(NCC(F)F)c(N3CCC(Oc4ccc(F)cc4F)CC3)nc2CN1C` (stereo unspecified), the IC50 was 23.2 nM. Take `CC(=O)N1CCc2nc(NC(C)C)c(N3CCC(Oc4ccc(C#N)cc4F)CC3)nc2C1`: the IC50 worked out at 105 nM. Consider `CC(C)Nc1nc2c(nc1N1CCC(Oc3ccc(F)cc3F)CC1)CN(C(=O)C1CCCO1)CC2` (stereo unspecified), for which the IC50 amounted to 19.5 nM. Consider `CS(=O)(=O)N1CCc2nc(N3CCC(Oc4ccc(F)cc4F)CC3)c(NCC(F)F)nc2C1`, for which the IC50 turned out to be 57.2 nM. `CN1CCc2nc(NC3CC3)c(N3CCC([C@@H](F)c4ccc(F)cc4F)CC3)nc2C1`: the IC50 is 26.5 nM. Consider `CO[C@H](C)C(=O)N1CCc2nc(NCC(F)F)c(N3CCC(Oc4ccc(F)cc4F)CC3)nc2C1`, for which the IC50 is 6.6 nM.

As to `CO[C@H](C)C(=O)N1Cc2nc(N3CCC(Oc4ccc(F)cc4F)CC3)c(NCC(F)F)nc2CC1C` (stereo partly specified), the IC50 was found to be 18.5 nM. Regarding `CO[C@H](C)C(=O)N1CCc2nc(N3CCC(Oc4ccc(F)cc4F)CC3)c(NCC(F)F)nc2C1`, the IC50 is 64 nM. The same measure, in the same setting: for `CC(C)Nc1nc2c(nc1N1CCC(Oc3ccc(F)cc3F)CC1)CCN(C(=O)N1CCOCC1)C2` the value was 62.6 nM.

The subject of another assay is Rattus norvegicus. The experiment in a line: Reversal of haloperidol-induced catalepsy in Sprague-Dawley rat model of Parkinson's disease assessed as reduction in catalepsy intensity index at 0.1 mg/kg, ip dosed along with haloperidol and measured after 30 mins relative to untreated control. In kind it is functional. Also noted: scale not given: the % may be the effect or the level left.
Settings: not given
In the case of `CC(=O)N1CCc2nc(N3CCC(Oc4ccc(F)cc4F)CC3)c(NC(C)C)nc2C1`, the Activity is -5.7%.
